Results: US7196074B2, “Methods of making, using and pharmaceutical formulations comprising 7α, 11β-dimethyl-17β-hydroxyestra-4, 14-dien-3-one and 17 esters thereof” (The United States of America as represented by the …, priority 2000, dated 2007)

Assays:
[1] = test system: ventral prostate weight; test: Subcutaneous androgenic potency, ventral prostate weight assay in orchidectomized immature rats (injection daily for seven days); type: in vivo, Sprague-Dawley rats; conditions: for Androgenic Potency (activity of corresponding alcohol): ventral prostate weight assay following subcutaneous administration, alcohol of G = 1.0 (assigned), value is for the free alcohol of the listed ester
Method: (§1) Immature (about 21-day-old) Sprague-Dawley rats were orchidectomized under anesthesia, and randomly assignee to groups of ten animals for each dose level of the active undergoing testing. Each active was dissolved in 10% ethanol/sesame oil and administered by gavage (oral) or subcutaneous injection each day for seven days beginning on the date of the orchidectomy. The animals were sacrificed 24 hours after the last dose, and the ventral prostate and seminal vesicles were excised, cleaned of fat and connective tissue, blotted on moist filter paper and weighed to the nearest 0.1 mg. Regression analysis was performed by conventional methods using a PROPHET data management system. Ventral prostate weight was used as the endpoint because it is the sensitive organ to androgenic stimulation.
as §1, with “by” for “by gavage (oral) or”, “mg. See, e.g., Hershberger, L. et al, Myotrophic Activity of 19-nortestosterone And Other Steroids Determined By Modified Levator And Muscle Method, Proc. Soc. Exptl. Bid. Med. 83 175–180 (1953).” for “mg.”, “system. See, e.g., Bliss, C., The Statistics of Bioassay (Academic Press, New York, 1952); Hollister, C., Nucleic Acids Res. 16 1873–75 (1988).” for “system.”
Immature (about 22-day-old) Sprague-Dawley male rats were orchidectomized under anesthesia, and randomly assignee to groups of ten animals for each dose level of the active undergoing testing. […] Illumination was controlled for 14 hour periods of light and 10 hours of darkness.
Each active was administered by subcutaneous injection of 0.6 mg of test material in aqueous suspending vehicle (ASV) and/or an oily vehicle (10% ethanol/sesame oil) on the day of surgery. Testosterone enanthate in sesame oil was used as a standard. The ventral prostate and seminal vesicles were excised, cleaned of fat and connective tissue, blotted on moist filter paper and weighed to the nearest 0.1 mg. Regression analysis was performed by conventional methods using a PROPHET data management system. Ventral prostate weight was used as the endpoint because it is the sensitive organ to androgenic stimulation.

[2] = test system: ventral prostate weight; test: Duration of androgenic activity after subcutaneous injection, ventral prostate weight over weeks in orchidectomized immature rats; type: in vivo, Sprague-Dawley rats
Method: as §1, with “was” for “was dissolved in 10% ethanol/sesame oil and”, “by” for “by gavage (oral) or”
Except for testosterone enanthate, each active was formulated in two different carriers: (1) an aqueous suspension and (2) in sesame oil. Testosterone enanthate was formulated using the sesame oil carrier only, because it exists as a liquid at room temperature and could not therefore be formulated as an aqueous suspension.
(§2) The carrier used to provide the aqueous suspension was formulated as follows: 1 g benzyl alcohol, 0.5 g sodium carboxylethyl cellulose 50, 0.376 g disodium hydrogen phosphate dihydrate, 1.495 g sodium dihydrogen phosphate dihydrate, with water for injection (WFI) being added to bring volume of the carrier up to 100 ml.
Each formulation was prepared at a concentration of 0.6 mg/0.2 ml.
Immature (about 21-day-old) Sprague-Dawley rats were orchidectomized under anesthesia, and randomly assignee to groups of 40 or more. Animals received a single subcutaneous injection of 0.6 mg of each ester in 0.2 ml of an aqueous suspending carrier and/or oily carrier (10% ethanol/90% sesame oil or ethyl oleate) on the date of the orchidectomy. In cases where the ester was not solid at room temperature, 10% ethanol/sesame oil or ethyl oleate was used as the carrier. In this example, the carrier used to provide the aqueous suspension was formulated as follows: 1 g benzyl alcohol, 0.5 g sodium carboxylethyl cellulose 50, 0.376 g disodium hydrogen phosphate dihydrate, 1.495 g sodium dihydrogen phosphate dihydrate, with water for injection (WFI) being added to bring volume of the carrier up to 100 ml.
Five animals from each group were sacrificed at weekly or biweekly intervals, and the ventral prostate and seminal vesicles were excised, cleaned of fat and connective tissue, blotted on moist filter paper and weighed to the nearest 0.1 mg.
Ventral prostate weight was used as the endpoint because it is the sensitive organ to androgenic stimulation. Regression analysis was performed by conventional methods using the PROPHET data management system previously identified.
Immature (about 21-day-old) Sprague-Dawley rats were orchidectomized under anesthesia, and randomly assignee to groups of 40 or more. Animals received a single subcutaneous injection of 0.6 mg of the undecanoate in 0.2 ml of an aqueous suspending carrier and/or oily carrier (10% ethanol/90% sesame oil containing 5 mg/ml chlorobutanol as a preservative, or ethyloleate) on the date of the orchidectomy. The enanthate ester was formulated using the 10% ethanol/sesame oil or ethyloleate carrier as a first standard, with the 10% ethanol/sesame oil carrier used as a second standard.
as §2, with “In this example, the” for “The”
Immature (about 21-day-old) Sprague-Dawley rats were orchidectomized under anesthesia, and randomly assignee to groups of 40 or more. […] The enanthate ester was formulated using the 10% ethanol/sesame oil or ethyloleate carrier as a first standard, with the 10% ethanol/sesame oil carrier used as a second standard.

[3] = biological target: T1, androgen receptor (Rattus norvegicus, UniProt P15207); test: Relative binding affinity to the androgen receptor; conditions: from rat prostate; relative to methyltrienolone = 100%; value is for the free alcohol of the listed ester
T1 sequence (P15207 1-902): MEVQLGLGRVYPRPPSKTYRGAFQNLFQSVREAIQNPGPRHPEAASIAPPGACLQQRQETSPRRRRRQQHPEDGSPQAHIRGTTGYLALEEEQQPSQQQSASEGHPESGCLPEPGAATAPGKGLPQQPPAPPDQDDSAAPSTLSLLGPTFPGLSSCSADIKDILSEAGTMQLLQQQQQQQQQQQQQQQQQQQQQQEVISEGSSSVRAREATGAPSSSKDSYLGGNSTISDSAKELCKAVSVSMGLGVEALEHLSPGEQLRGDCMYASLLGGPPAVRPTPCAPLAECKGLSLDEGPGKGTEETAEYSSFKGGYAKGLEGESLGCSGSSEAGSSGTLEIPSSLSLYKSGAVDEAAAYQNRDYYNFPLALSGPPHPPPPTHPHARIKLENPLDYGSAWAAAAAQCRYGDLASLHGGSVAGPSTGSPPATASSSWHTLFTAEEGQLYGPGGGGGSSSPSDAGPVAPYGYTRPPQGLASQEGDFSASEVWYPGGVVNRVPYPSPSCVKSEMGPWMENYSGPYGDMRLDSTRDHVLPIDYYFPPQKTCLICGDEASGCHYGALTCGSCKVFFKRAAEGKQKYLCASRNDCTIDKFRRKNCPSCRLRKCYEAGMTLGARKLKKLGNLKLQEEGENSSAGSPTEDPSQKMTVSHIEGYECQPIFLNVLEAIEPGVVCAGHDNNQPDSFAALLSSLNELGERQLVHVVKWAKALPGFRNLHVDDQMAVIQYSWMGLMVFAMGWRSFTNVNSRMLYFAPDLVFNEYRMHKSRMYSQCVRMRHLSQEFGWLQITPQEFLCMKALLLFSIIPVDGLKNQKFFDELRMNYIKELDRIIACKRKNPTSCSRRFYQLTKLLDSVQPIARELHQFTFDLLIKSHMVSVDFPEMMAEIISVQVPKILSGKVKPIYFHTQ
Method: In addition to the foregoing, the androgenic potency and relative binding affinity to the androgen receptor of several free alcohols after subcutaneous administration of their corresponding esters was also determined.

## C[C@@H]1CC2=CC(=O)CC[C@@H]2[C@@H]2[C@@H]1[C@@H]1CC[C@H](O)[C@@]1(C)C[C@@H]2C
other
  melting point: 155 to 157 °C

## CCCCC1CCC(C(=O)O[C@H]2CC[C@H]3[C@H]4[C@H]([C@H](C)C[C@]23C)[C@H]2CCC(=O)C=C2C[C@H]4C)CC1 (stereo partly drawn) [CDB-4386, 7α, 11α-Dimethyl-19-nortestosterone-17β-bucyclate, reference compound]
[1]; subcutaneous injection daily for 7 days in 10% ethanol/sesame oil, ventral prostate weight
  activity after subcutaneous administration (in words): weak activity
[2]; 0.6 mg in 0.2 ml, both oily and aqueous carriers, evaluation discontinued at 8 weeks, FIG. 8
  ventral prostate weight over time after single subcutaneous injection (in words): inactive
[2]; 0.6 mg/0.2 ml, aqueous suspension or sesame oil, ventral prostate weight
  activity in potency and duration after subcutaneous injection (in words), FIG. 5: relatively low activity

## C[C@]1(O)CC[C@H]2[C@@H]3CCC4=CC(=O)CCC4=C3C=C[C@@]21C [methyltrienolone]
[1]
  Androgenic Potency (activity of corresponding alcohol): 5.0
[3]
  Relative Binding Affinity (activity of corresponding alcohol): 100%

## CCCCC1CCC(C(=O)O[C@H]2CC[C@H]3[C@@H]4CCC5=CC(=O)CC[C@]5(C)[C@H]4CC[C@]23C)CC1 (some centres unmarked) [testosterone bucyclate, Testosterone bucyclate, reference compound]
[1]
  Androgenic Potency (activity of corresponding alcohol): 1.0 (assigned)
[2]; 1.0 mg/0.2 ml, aqueous suspension, ventral prostate weight
  potency and long-term activity after subcutaneous injection versus 0.6 mg CDB-4386A in aqueous suspension (in words), FIG. 5: significantly less
